The values that follow are results of earlier work, collected in patent US9913492B1, “Yolatile liquid inhaler and method of manufacture” (priority 2010, dated 2018).

In series [1] the test system is adult human beings.
Series [2] concerns rats.
Series [3] relates to mice.
For series [4] the following is noted: at 25 degrees C.

On to `COC(=O)[C@H]1[C@@H](OC(=O)c2ccccc2)C[C@@H]2CC[C@H]1N2C` [cocaine], for which the lethal dose in series [1] (comparison with nicotine) is given as 1000 mg.
Turning to `CN1CCCC1c1cccnc1` (centres unmarked) [nicotine], the lethal dosage in series [1] (adult human beings) is 40 to 60 mg. The LD50 in series [2] is reported as 50 mg/kg; in series [3], 3 mg/kg. Further, the vapor pressure in series [4] is 0.53 MBR.

As a reminder, the LD50 is the dose at which mortality reaches 50%.
